pIC50: −log10 of the molar value.
Assays:
[1] = system: MCF7; assay: Cytotoxicity against human MCF7 cells assessed as reduction in cell viability after 48 hrs by MTT assay; format: functional, cell-based; settings: MCF7, 48 h
[2] = system: T47D; assay: Cytotoxicity against human T47D cells assessed as reduction in cell viability after 48 hrs by MTT assay; format: functional, cell-based
[3] = system: MDA-MB-231; assay: Cytotoxicity against human MDA-MB-231 cells assessed as reduction in cell viability after 48 hrs by MTT assay; format: functional, cell-based; settings: MDA-MB-231, 48 h
[4] = target: RAC-alpha serine/threonine-protein kinase (Homo sapiens, UniProt P31749); assay: Inhibition of PKBalpha (unknown origin)
Chain of RAC-alpha serine/threonine-protein kinase (P31749 whole entry): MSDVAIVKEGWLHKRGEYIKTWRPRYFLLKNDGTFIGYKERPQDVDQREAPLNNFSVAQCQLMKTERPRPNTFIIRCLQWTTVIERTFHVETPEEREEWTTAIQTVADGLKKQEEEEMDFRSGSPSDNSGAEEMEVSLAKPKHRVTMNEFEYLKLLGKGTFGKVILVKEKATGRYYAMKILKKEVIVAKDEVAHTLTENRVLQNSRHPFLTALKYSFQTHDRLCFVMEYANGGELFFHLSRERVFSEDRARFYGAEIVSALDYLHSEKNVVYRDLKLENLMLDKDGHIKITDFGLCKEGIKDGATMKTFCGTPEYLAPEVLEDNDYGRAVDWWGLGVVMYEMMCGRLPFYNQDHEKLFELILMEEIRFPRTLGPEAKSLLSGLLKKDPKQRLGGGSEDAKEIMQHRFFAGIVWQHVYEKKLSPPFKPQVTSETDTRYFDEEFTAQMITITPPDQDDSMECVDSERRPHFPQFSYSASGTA

[5] = target: RAC-beta serine/threonine-protein kinase (Homo sapiens, UniProt P31751); assay: Inhibition of PKBbeta (unknown origin)
Chain of RAC-beta serine/threonine-protein kinase (P31751 whole entry): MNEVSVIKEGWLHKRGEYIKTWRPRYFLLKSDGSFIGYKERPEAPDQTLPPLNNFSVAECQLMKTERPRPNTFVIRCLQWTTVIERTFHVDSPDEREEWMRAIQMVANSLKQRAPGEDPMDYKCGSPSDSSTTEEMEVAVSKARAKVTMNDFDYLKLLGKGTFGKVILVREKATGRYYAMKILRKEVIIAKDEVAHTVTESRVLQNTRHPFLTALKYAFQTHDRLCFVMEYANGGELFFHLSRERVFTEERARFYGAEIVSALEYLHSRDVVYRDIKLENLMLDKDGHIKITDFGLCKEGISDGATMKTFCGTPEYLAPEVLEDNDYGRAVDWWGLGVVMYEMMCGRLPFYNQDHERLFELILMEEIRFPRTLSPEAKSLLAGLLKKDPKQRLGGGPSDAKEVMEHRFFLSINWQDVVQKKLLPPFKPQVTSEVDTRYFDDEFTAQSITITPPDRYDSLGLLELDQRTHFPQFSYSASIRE

[6] = target: RAC-gamma serine/threonine-protein kinase (Homo sapiens, UniProt Q9Y243); assay: Inhibition of PKBgamma (unknown origin)
Chain of RAC-gamma serine/threonine-protein kinase (Q9Y243 whole entry): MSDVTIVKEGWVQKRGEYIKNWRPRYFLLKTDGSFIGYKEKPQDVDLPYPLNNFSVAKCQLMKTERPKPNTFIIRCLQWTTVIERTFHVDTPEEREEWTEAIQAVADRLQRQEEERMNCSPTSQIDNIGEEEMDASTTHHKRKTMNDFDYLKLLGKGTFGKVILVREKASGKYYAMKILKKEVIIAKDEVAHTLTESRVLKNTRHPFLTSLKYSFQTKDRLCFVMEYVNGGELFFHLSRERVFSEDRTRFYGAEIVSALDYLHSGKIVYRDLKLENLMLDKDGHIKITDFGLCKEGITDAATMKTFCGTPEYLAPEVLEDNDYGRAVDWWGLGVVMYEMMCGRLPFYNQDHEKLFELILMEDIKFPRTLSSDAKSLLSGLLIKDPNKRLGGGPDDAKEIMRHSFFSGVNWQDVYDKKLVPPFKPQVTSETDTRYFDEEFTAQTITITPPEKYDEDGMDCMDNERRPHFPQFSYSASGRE

[7] = target: T1, Inhibitor of nuclear factor kappa-B kinase subunit alpha (Homo sapiens, UniProt O15111); assay: Inhibition of IKKalpha (unknown origin)
T1 sequence (O15111 whole entry): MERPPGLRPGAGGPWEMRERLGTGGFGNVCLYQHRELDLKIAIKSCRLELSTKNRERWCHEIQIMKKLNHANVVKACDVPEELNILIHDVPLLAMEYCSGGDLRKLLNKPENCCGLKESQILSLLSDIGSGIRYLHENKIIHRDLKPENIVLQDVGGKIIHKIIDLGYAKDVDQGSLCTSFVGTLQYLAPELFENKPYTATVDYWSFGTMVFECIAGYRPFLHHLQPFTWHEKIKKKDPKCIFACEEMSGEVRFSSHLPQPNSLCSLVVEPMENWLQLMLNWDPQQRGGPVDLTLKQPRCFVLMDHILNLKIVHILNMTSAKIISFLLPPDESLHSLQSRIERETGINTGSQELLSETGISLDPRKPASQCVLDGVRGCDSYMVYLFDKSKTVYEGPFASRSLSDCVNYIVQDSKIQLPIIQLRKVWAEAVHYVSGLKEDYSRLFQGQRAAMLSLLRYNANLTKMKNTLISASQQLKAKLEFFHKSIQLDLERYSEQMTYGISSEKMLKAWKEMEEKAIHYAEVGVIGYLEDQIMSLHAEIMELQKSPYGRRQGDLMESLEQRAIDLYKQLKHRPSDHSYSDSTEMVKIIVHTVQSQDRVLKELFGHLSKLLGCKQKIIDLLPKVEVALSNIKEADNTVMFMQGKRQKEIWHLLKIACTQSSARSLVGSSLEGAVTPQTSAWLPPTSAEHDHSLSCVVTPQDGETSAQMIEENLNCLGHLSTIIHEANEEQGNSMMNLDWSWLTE

[8] = target: T2, Inhibitor of nuclear factor kappa-B kinase subunit beta (Homo sapiens, UniProt O14920); assay: Inhibition of IKKbeta (unknown origin)
T2 sequence (O14920 whole entry): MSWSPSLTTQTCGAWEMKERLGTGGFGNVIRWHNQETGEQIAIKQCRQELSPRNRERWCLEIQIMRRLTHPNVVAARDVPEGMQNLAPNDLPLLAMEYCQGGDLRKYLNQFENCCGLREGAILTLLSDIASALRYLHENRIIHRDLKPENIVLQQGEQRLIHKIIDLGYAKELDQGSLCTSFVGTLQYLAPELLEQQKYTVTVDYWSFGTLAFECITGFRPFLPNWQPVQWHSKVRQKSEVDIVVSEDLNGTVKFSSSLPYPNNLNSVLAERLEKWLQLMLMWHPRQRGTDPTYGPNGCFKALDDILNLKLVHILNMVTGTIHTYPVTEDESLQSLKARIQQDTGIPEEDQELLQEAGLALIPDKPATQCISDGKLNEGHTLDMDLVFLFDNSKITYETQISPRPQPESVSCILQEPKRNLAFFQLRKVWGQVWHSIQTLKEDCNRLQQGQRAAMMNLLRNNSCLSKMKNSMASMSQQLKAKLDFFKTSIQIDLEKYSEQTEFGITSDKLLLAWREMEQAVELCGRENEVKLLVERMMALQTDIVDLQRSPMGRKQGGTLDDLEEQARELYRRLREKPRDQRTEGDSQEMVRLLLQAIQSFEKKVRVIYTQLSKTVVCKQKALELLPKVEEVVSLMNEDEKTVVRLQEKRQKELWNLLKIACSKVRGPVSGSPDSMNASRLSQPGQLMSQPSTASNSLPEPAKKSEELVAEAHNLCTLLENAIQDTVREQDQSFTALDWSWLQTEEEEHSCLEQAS

[9] = system: MCF7; assay: Cytotoxicity against human MCF7 cells assessed as reduction in cell viability after 72 hrs by MTT assay; format: functional, cell-based; settings: MCF7, 72 h
[10] = system: ACHN; assay: Cytotoxicity against human ACHN cells assessed as reduction in cell viability after 72 hrs by MTT assay; format: functional, cell-based
[11] = system: A 172; assay: Cytotoxicity against human A172 cells assessed as reduction in cell viability after 72 hrs by MTT assay; format: functional, cell-based; settings: A 172, 72 h
[12] = system: SK-MEL3; assay: Cytotoxicity against human SK-MEL-3 cells assessed as reduction in cell viability after 72 hrs by MTT assay; format: functional, cell-based; settings: SK-MEL3, 72 h
[13] = system: KB; assay: Cytotoxicity against human KB cells assessed as reduction in cell viability after 72 hrs by MTT assay; format: functional, cell-based
[14] = system: A549; assay: Cytotoxicity against human A549 cells assessed as reduction in cell viability after 72 hrs by MTT assay; format: functional, cell-based; settings: A549, 72 h
[15] = system: A2780; assay: Cytotoxicity against human A2780 cells assessed as reduction in cell viability after 72 hrs by MTT assay; format: functional, cell-based; settings: A2780, 72 h

Structure (SMILES) | pIC50 [4] | pIC50 [5] | pIC50 [6] | pIC50 [7] | pIC50 [8] | further results
COc1cc(Cn2cc(Cn3c4ccccc4c(=O)c4ccccc43)nn2)cc(OC)c1OC | – | – | – | – | – | pIC50 [1]: < 4.00; pIC50 [2]: < 4.00; pIC50 [3]: < 4.00
COc1ccc2c(c1)c(=O)c1ccccc1n2Cc1cn(Cc2cc(OC)c(OC)c(OC)c2)nn1 | – | – | – | – | – | pIC50 [1]: < 4.00; pIC50 [2]: < 4.00; pIC50 [3]: < 4.00
CCn1cc(C(=O)O)c(=O)c2cc(F)c(N3CCN(C/C(=N/OC)c4ccco4)CC3)cc21 | – | – | – | – | – | pIC50 [9]: < 4.00; pIC50 [10]: < 4.00; pIC50 [11]: < 4.00; pIC50 [12]: < 4.00; pIC50 [13]: < 4.00; pIC50 [14]: < 4.00; pIC50 [15]: < 4.00
CO/N=C(/CN1CCN(c2cc3c(cc2F)c(=O)c(C(=O)O)cn3C2CC2)CC1)c1ccco1 | – | – | – | – | – | pIC50 [9]: < 4.00; pIC50 [10]: < 4.00; pIC50 [11]: < 4.00; pIC50 [12]: < 4.00; pIC50 [13]: < 4.00; pIC50 [14]: < 4.00; pIC50 [15]: < 4.00
COc1ccc(Cn2cc(Cn3c4ccccc4c(=O)c4cc(OC)ccc43)nn2)cc1 | – | – | – | – | – | pIC50 [1]: 4.78 to 4.96; pIC50 [2]: 4.78 to 4.96; pIC50 [3]: 4.78 to 4.96
O=C(O)c1cn(C2CC2)c2cc(N3CCN(C/C(=N/O)c4ccco4)CC3)c(F)cc2c1=O | – | – | – | – | – | pIC50 [9]: < 4.00; pIC50 [10]: < 4.00; pIC50 [11]: < 4.00; pIC50 [12]: < 4.00; pIC50 [13]: < 4.00; pIC50 [14]: < 4.00; pIC50 [15]: < 4.00
CCn1cc(C(=O)O)c(=O)c2cc(F)c(N3CCN(C/C(=N/OCc4ccccc4)c4ccco4)CC3)cc21 | – | – | – | – | – | pIC50 [9]: ≥ 5.00; pIC50 [10]: ≥ 5.00; pIC50 [11]: ≥ 5.00; pIC50 [12]: ≥ 5.00; pIC50 [13]: ≥ 5.00; pIC50 [14]: ≥ 5.00; pIC50 [15]: ≥ 5.00

Continued, in another order:

pIC50 [4] | pIC50 [5] | pIC50 [6] | pIC50 [7] | pIC50 [8] | Structure (SMILES) | further results
4.35 to 5.79 | 4.35 to 5.79 | 4.35 to 5.79 | 4.35 to 5.79 | 4.35 to 5.79 | Cc1ccc2[nH]c(=O)c(C(=O)/C=C/c3nc4ccccc4[nH]3)c(-c3ccccc3)c2c1 | –
4.35 to 5.79 | 4.35 to 5.79 | 4.35 to 5.79 | 4.35 to 5.79 | 4.35 to 5.79 | Cn1c(=O)c(C(=O)/C=C/c2nc3cc(F)ccc3[nH]2)c(-c2ccccc2)c2cc(Cl)ccc21 | –
4.35 to 5.79 | 4.35 to 5.79 | 4.35 to 5.79 | 4.35 to 5.79 | 4.35 to 5.79 | O=C(/C=C/c1nc2cc(F)ccc2[nH]1)c1c(-c2ccc(F)cc2)c2cc(F)ccc2[nH]c1=O | –
4.35 to 5.79 | 4.35 to 5.79 | 4.35 to 5.79 | 4.35 to 5.79 | 4.35 to 5.79 | O=C(/C=C/c1nc2cc(F)c(F)cc2[nH]1)c1c(-c2ccc(F)cc2)c2cc(Cl)ccc2[nH]c1=O | –
4.35 to 5.79 | 4.35 to 5.79 | 4.35 to 5.79 | 4.35 to 5.79 | 4.35 to 5.79 | O=C(/C=C/c1nc2cc(F)ccc2[nH]1)c1c(-c2ccccc2)c2cc(Cl)ccc2[nH]c1=O | –
4.35 to 5.79 | 4.35 to 5.79 | 4.35 to 5.79 | 4.35 to 5.79 | 4.35 to 5.79 | O=C(/C=C/c1nc2cc(F)c(F)cc2[nH]1)c1c(-c2ccc(F)c(F)c2)c2cc(F)ccc2[nH]c1=O | –
4.35 to 5.79 | 4.35 to 5.79 | 4.35 to 5.79 | 4.35 to 5.79 | 4.35 to 5.79 | O=C(/C=C/c1nc2cc(F)c(F)cc2[nH]1)c1c(-c2ccc(F)cc2)c2cc(F)ccc2[nH]c1=O | –
4.35 to 5.79 | 4.35 to 5.79 | 4.35 to 5.79 | 4.35 to 5.79 | 4.35 to 5.79 | O=C(/C=C/c1nc2cc(Br)ccc2[nH]1)c1c(-c2ccccc2)c2cc(Cl)ccc2[nH]c1=O | –
